In this assay the test system is normal rat pulmonary artery smooth muscle cells (rPASMC CON). As to the kind of experiment: BrdU cell proliferation assay, 10% FBS, rPASMC CON. The class given is cell-based. As to the method:
BrdU (5-bromo-2-deoxyuridine) cell proliferation assay (BrdU assay)
A 48-well plate was used, and 1.5×10^4 cells were implanted in each well. After 24 hours, the medium was changed to serum-free culture medium and synchronized for 24 hours. A 2-fold concentration of the compound in serum-free culture medium is prepared and the cells were pretreated for 1 hour. Then, the same volume of culture medium containing 20% fetal bovine serum (FBS) was added to dilute the compound. The final concentration was 10% FBS culture medium and 1 times the concentration of the compound. In the experimental group that added TGF-β, the same volume of TGF-β culture medium containing 10 ng/mL was added, with a final concentration of 5 ng/mL TGF-β and 1 times the concentration of the compound, and in the experimental group added with TGF-β, the entire process was conducted in culture medium containing 0.1% serum. Then, BrdU reagent was added about 6 hours later, and the cells were collected the next day for enzyme-linked immunosorbent assay (ELISA) analysis, the compound treatment time was about 24 hours, and the BrdU treatment time was about 18 hours.
Five compounds to be tested were screened by cell survival assay (MTT assay) and BrdU (5-bromo-2-deoxyuridine) cell proliferation assay, and the information of these compounds was listed in Table 1 below. Tables 2 and 3 respectively listed the growth inhibitions of on human pulmonary artery endothelial cells (hPAEC), human pulmonary artery smooth muscle cells (hPASMC), normal rat pulmonary artery smooth muscle cells (rPASMC, as the control group, represented by “CON”), and rat pulmonary artery smooth muscle cells (represented by “MCT”), by the five compounds to be tested under the conditions of 10% FBS, 0.1% FBS and 100 pM TGF-β.

pEC50: −log10 of the molar value.

Take `CC(C)CCCC(C)C1CCC2C3=CC=C4CC(O)CCC4(C)C3CCC21C` (centres unmarked) [Code 039, 7-DHC]: the pEC50 (Rattus norvegicus, read-out: EC50 (concentration for 50% of maximal effect)) is 4.42. Besides, the “Inhibition of cell growth (in words)” value (rPASMC CON1, 10% FBS, FIG. 2) is “significant inhibitory effects”.

Source of the values: patent publication US20240408112A1, “METHOD FOR PREVENTING OR TREATING PULMONARY ARTERIAL HYPERTENSION BY USING 7-DEHYDROCHOLESTEROLS OR SALTS, OXIDES, METABOLITES, OR DERIVATIVES THEREOF” (EXCELSIOR PHARMATECH LABS., priority 2023, published 2024).
